Tests used:
[1] = tested on: HMEC-1 (human dermal microvascular endothelial cells); assay: Cell growth assay, HMEC-1 cells; type: cell-based; details: HMEC-1, 96 h, racemic compounds, 4 days, Coulter counter
Protocol: (§1) HeLa (human cervix carcinoma) and CEM (human T-lymphoblast) were grown in Dulbecco’s modified Eagle’s medium (DMEM; Gibco, Carlsbad, CA, USA), supplemented with 0.01 M Hepes (Gibco) and 1 mM sodium pyruvate (Gibco) in a humidified 5% CO2 incubator at 37 °C. HMEC-1 (human microvascular endothelial cells) was maintained in Dulbecco’s modified Eagle’s medium (DMEM)/low glucose containing glutamine (2 mM). The media were supplemented with 10% fetal bovine serum (FBS, Gibco), penicillin ([…]), streptomycin ([…]), and amphotericin B ([…]). CEM cells were seeded in 96-well plates at 60,000 cells/well in the presence of different concentrations of the compounds, and allowed to proliferate for 72 h. HeLa cells were seeded in 96-well plates at 15,000 cells/well in the presence of different concentrations of the compounds. After 4 days of incubation, the cells were trypsinized and counted. HMEC-1 cells were seeded in 48-well plates at 20,000 cells/well. After 24 h, the compounds were added at different concentrations. The cells were allowed to proliferate for 4 days in the presence of the compounds, trypsinized, and counted. All cells were counted by means of a Coulter counter (Analis, Belgium).

[2] = tested on: MSTO-211H (biphasic mesothelioma); assay: Cell growth assay (Trypan blue), MSTO-211H cells; type: cell-based, human; details: for IC50: 72 h, Trypan blue
Protocol: (§2) A2780 (human ovarian carcinoma) and HT-29 (human colorectal adenocarcinoma) were grown in RPMI 1640 (Sigma Chemical Co., St. Louis, MO, USA), and MSTO-211H (human biphasic mesothelioma) were grown in RPMI 1640 (Sigma Chemical Co.) supplemented with 2.38 g/L Hepes, 0.11 g/L pyruvate sodium, and 2.5 g/L glucose. Then, 1.5 g/L NaHCO3, 10% heat-inactivated fetal calf serum (Biowest), 100 U/mL penicillin, 100 μg/mL streptomycin, and 0.25 μg/mL amphotericin B (Sigma Chemical Co.) were added to the media. The cells were cultured at 37 °C in a moist atmosphere of 5% carbon dioxide in air. Cells (2.5–3 × 10^4) were seeded into each well of a 24-well cell culture plate. After incubation for 24 h, various concentrations of the test agents were added to the complete medium and incubated for a further 72 h. A Trypan blue assay was performed to determine cell viability. Cytotoxicity data were expressed as IC50 values, i.e., the concentration of the test compound able to induce a 50% reduction in cell number compared with control cultures.

[3] = tested on: A2780 (ovarian carcinoma); assay: Cell growth assay (Trypan blue), A2780 cells; type: cell-based, human; details: 72 h, Trypan blue
Protocol: as §2

[4] = tested on: CEM (human T-lymphocyte cells); assay: Cell growth assay, CEM cells; type: cell-based; details: racemic compounds, 72 h, Coulter counter
Protocol: as §1

[5] = tested on: HeLa (human cervix carcinoma cells); assay: Cell growth assay, HeLa cells; type: cell-based; details: 96 h, racemic compounds, 4 days, Coulter counter
Protocol: as §1

[6] = tested on: HT-29 (colorectal adenocarcinoma); assay: Cell growth assay (Trypan blue), HT-29 cells; type: cell-based, human; details: 72 h
Protocol: as §2

[7] = biological target: quinone reductase 2 (QR2); design: method as in PMID 22716080, PMID 16765324; details: read-out: QR2 inhibitory activity IC50; cited from earlier work
[8] = Homo sapiens, MSTO-211H, racemic compounds
[9] = Homo sapiens, A2780, 72 h, racemic compounds
[10] = Homo sapiens, HT-29, racemic compounds
[11] = Homo sapiens, MSTO-211H, pure enantiomers
[12] = Homo sapiens, A2780, 72 h, pure enantiomers
[13] = Homo sapiens, HT-29, pure enantiomers

SMILES	IC50 [2, 8] [µM]	IC50 [3, 9] [µM]	melting point [°C]	IC50 [6, 10] [µM]	IC50 ([2]; pure enantiomers) [µM]	IC50 ([3]; pure enantiomers) [µM]	IC50 ([6]; pure enantiomers) [µM]	IC50 [2, 11] [µM]	IC50 [3, 12] [µM]	IC50 [6, 13] [µM]	IC50 [1] [µM]	IC50 [4] [µM]	IC50 [5] [µM]	cytotoxic effect on MSTO-211H (in words) ([2]; pure enantiomers)	IC50 [7] [µM]
Cc1ccc(O)c(/C=N/C2CCCc3ccc(C)nc32)c1 (centres unmarked) [Compound 2a, (E)-4-methyl-2-(((2-methyl-5,6,7,8-tetrahydroquinolin-8-yl)imino)methyl)phenol]	95 ± 5	> 100	101.8 to 103.4	> 100	–	–	–	–	–	–	> 100	> 100	> 100	–	–
Cc1ccc(O)c(CN[C@H]2CCCc3ccc(C)nc32)c1 [(S)-2b, 4-methyl-2-(((2-methyl-5,6,7,8-tetrahydroquinolin-8-yl)amino)methyl)phenol]	–	–	–	–	> 20	11.5 ± 2.6	> 20	–	–	–	–	–	–	inactive	–
Cc1ccc2c(n1)[C@@H](/N=C/c1ccccn1)CCC2 [(S)-3a, (E)-N-(2-methyl-5,6,7,8-tetrahydroquinolin-8-yl)-1-(pyridin-2-yl)methanimine]	–	–	–	–	11.8 ± 2.3	11.4 ± 0.4	> 20	–	–	–	–	–	–	–	–
Cc1ccc2c(n1)[C@H](/N=C/c1ccccn1)CCC2 [(R)-3a, (E)-N-(2-methyl-5,6,7,8-tetrahydroquinolin-8-yl)-1-(pyridin-2-yl)methanimine]	–	–	–	–	–	–	–	14.9 ± 1.4	11.7 ± 2	> 20	–	–	–	–	–
CN1C(=O)c2cc(C(N)=O)nc3c(N)c(Cl)c(N)c1c23 [Compound 4, ammosamide B]	–	–	–	–	–	–	–	–	–	–	–	–	–	–	0.061
Cc1ccc2c(n1)[C@@H](/N=C/c1ncc[nH]1)CCC2 [(S)-5a, (E)-1-(1H-imidazol-2-yl)-N-(2-methyl-5,6,7,8-tetrahydroquinolin-8-yl)methanimine]	–	–	–	–	> 20	17.2 ± 3	> 20	–	–	–	–	–	–	ineffective	–
Cc1ccc2c(n1)C(NCc1cccc(C)c1O)CCC2 (centres unmarked) [Compound 1b, 2-methyl-6-(((2-methyl-5,6,7,8-tetrahydroquinolin-8-yl)amino)methyl)phenol]	28 ± 4	42 ± 5	89.2 to 91.1	57 ± 6	–	–	–	–	–	–	63 ± 2	66 ± 47	93 ± 10	–	–
CNc1c(Cl)c(N)c2c3c(cc(C(N)=O)nc13)C(=O)N2C [Compound 5]	–	–	–	–	–	–	–	–	–	–	–	–	–	–	0.0041
Cc1ccc(O)c(CN[C@@H]2CCCc3ccc(C)nc32)c1 [(R)-2b, 4-methyl-2-(((2-methyl-5,6,7,8-tetrahydroquinolin-8-yl)amino)methyl)phenol]	–	–	–	–	–	–	–	> 20	15.2 ± 2.3	> 20	–	–	–	inactive	–
Cc1ccc(O)c(CNC2CCCc3ccc(C)nc32)c1 (racemic) [Compound 2b, 4-methyl-2-(((2-methyl-5,6,7,8-tetrahydroquinolin-8-yl)amino)methyl)phenol]	35 ± 10	25 ± 5	89.5 to 90.8	62 ± 8	–	–	–	–	–	–	60 ± 2	23 ± 4	75 ± 11	–	–
Cc1ccc2c(n1)C(/N=C/c1cccc(C)c1O)CCC2 (centres unmarked) [Compound 1a, (E)-2-methyl-6-(((2-methyl-5,6,7,8-tetrahydroquinolin-8-yl)imino)methyl)phenol]	69 ± 3	65 ± 9	102.2 to 103.8	83 ± 5	–	–	–	–	–	–	> 100	> 100	> 100	–	–

Further lines, with some results ahead:

IC50 [2, 8] [µM]	IC50 [3, 9] [µM]	melting point [°C]	IC50 [6, 10] [µM]	IC50 ([2]; pure enantiomers) [µM]	IC50 ([3]; pure enantiomers) [µM]	IC50 ([6]; pure enantiomers) [µM]	IC50 [2, 11] [µM]	IC50 [3, 12] [µM]	IC50 [6, 13] [µM]	SMILES	IC50 [1] [µM]	IC50 [4] [µM]	IC50 [5] [µM]	cytotoxic effect on MSTO-211H (in words) ([2]; pure enantiomers)	IC50 [7] [µM]
31 ± 7	13 ± 3	101.2 to 102.6	70 ± 2	–	–	–	–	–	–	Cc1ccc2c(n1)C(/N=C/c1ncc[nH]1)CCC2 (racemic) [Compound 5a, (E)-1-(1H-imidazol-2-yl)-N-(2-methyl-5,6,7,8-tetrahydroquinolin-8-yl)methanimine]	57 ± 4	43 ± 7	37 ± 9	–	–
30 ± 8	16 ± 2	102.8 to 104.3	42 ± 6	–	–	–	–	–	–	Cc1ccc2c(n1)C(/N=C/c1ccccn1)CCC2 (racemic) [Compound 3a, (E)-N-(2-methyl-5,6,7,8-tetrahydroquinolin-8-yl)-1-(pyridin-2-yl)methanimine]	77 ± 32	33 ± 7	34 ± 6	–	–
25 ± 11	36 ± 4	104.2 to 105.8	46 ± 7	–	–	–	–	–	–	Cc1ccc2c(n1)C(/N=C/c1cc3c4c(c1O)CCCN4CCC3)CCC2 (centres unmarked) [Compound 6a, (E)-9-(((2-methyl-5,6,7,8-tetrahydroquinolin-8-yl)imino)methyl)-2,3,6,7-tetrahydro-1H,5H-pyrido [3,2,1-ij]quinolin-8-ol]	82 ± 4	64 ± 32	> 100	–	–
14 ± 1	11 ± 2	103.2 to 104.5	42 ± 8	–	–	–	–	–	–	Cc1ccc2c(n1)C(/N=C/c1cn(C)cn1)CCC2 (centres unmarked) [Compound 4a, (E)-1-(1-methyl-1H-imidazol-4-yl)-N-(2-methyl-5,6,7,8-tetrahydroquinolin-8-yl)methanimine]	> 100	> 100	> 100	–	–
> 100	> 100	90.3 to 92.2	> 100	–	–	–	–	–	–	Cc1ccc2c(n1)C(NCc1cn(C)cn1)CCC2 (centres unmarked) [Compound 4b, 2-methyl-N-((1-methyl-1H-imidazol-4-yl)methyl)-5,6,7,8-tetrahydroquinolin-8-amine]	89 ± 2	> 100	> 100	–	–
77 ± 7	36 ± 4	94.3 to 95.5	74 ± 3	–	–	–	–	–	–	Cc1ccc2c(n1)C(NCc1cc3c4c(c1O)CCCN4CCC3)CCC2 (centres unmarked) [Compound 6b, 9-(((2-methyl-5,6,7,8-tetrahydroquinolin-8-yl)amino)methyl)-2,3,6,7-tetrahydro-1H,5H-pyrido[3 ,2,1-ij]quinolin-8-ol]	81 ± 26	77 ± 32	> 100	–	–
15 ± 3	11 ± 3	87.8 to 89.2	42 ± 6	–	–	–	–	–	–	Cc1ccc2c(n1)C(NCc1ccccn1)CCC2 (centres unmarked) [Compound 3b, 2-methyl-N-(pyridin-2-ylmethyl)-5,6,7,8-tetrahydroquinolin-8-amine]	> 100	> 100	> 100	–	–
44 ± 5	38 ± 7	86.7 to 88.1	73 ± 6	–	–	–	–	–	–	Cc1ccc2c(n1)C(NCc1ncc[nH]1)CCC2 (centres unmarked) [Compound 5b, N-((1H-imidazol-2-yl)methyl)-2-methyl-5,6,7,8-tetrahydroquinolin-8-amine]	53	51 ± 13	71 ± 3	–	–
